The NIST ThermoML archive (doi:10.1021/acs.jced.6b00577)

Conditions: Liquid, Frequency=8 MHz, Pulse-echo method

CCCC [butane]
Conditions | speed of sound [m/s]
199.99 K, 40128 kPa | 1640.8
199.99 K, 45132 kPa | 1662
199.99 K, 50136 kPa | 1682.6
200 K, 1101.4 kPa | 1447.8
200 K, 2102.1 kPa | 1453.5
200 K, 3102.8 kPa | 1459.2
200 K, 4103.5 kPa | 1464.9
200 K, 5104.2 kPa | 1470.5
200 K, 6105.1 kPa | 1476
200 K, 7105.9 kPa | 1481.5
200 K, 8106.6 kPa | 1487
200 K, 9107.3 kPa | 1492.4
200 K, 10108 kPa | 1497.8
200 K, 12610 kPa | 1510.9
200 K, 15112 kPa | 1523.8
200 K, 17613 kPa | 1536.5
200 K, 20115 kPa | 1548.9
200 K, 25119 kPa | 1573.1
200 K, 30123 kPa | 1596.4
200 K, 35126 kPa | 1619
200 K, 60143 kPa | 1722.2
200 K, 70150 kPa | 1759.8
200 K, 80157 kPa | 1795.8
200 K, 90164 kPa | 1830.2
200 K, 100171 kPa | 1863.2
201 K, 250.62 kPa | 1437.2
201 K, 600.55 kPa | 1439.2
201 K, 1100.5 kPa | 1442.1
201 K, 1101.5 kPa | 1442.2
201 K, 2101.9 kPa | 1448
201 K, 2102 kPa | 1448
201 K, 3102.6 kPa | 1453.7
201 K, 4103.4 kPa | 1459.4
201 K, 5104 kPa | 1465
220 K, 249.98 kPa | 1330.5
220 K, 599.68 kPa | 1332.8
220 K, 1100.7 kPa | 1336.1
220 K, 1100.8 kPa | 1336.1
220 K, 2101.6 kPa | 1342.7
220 K, 2101.8 kPa | 1342.7
220 K, 2102.1 kPa | 1342.7
220 K, 2103.4 kPa | 1342.6
220 K, 3102.3 kPa | 1349.1
220 K, 3104.1 kPa | 1349.1
220 K, 4103 kPa | 1355.5
220 K, 4104.7 kPa | 1355.5
220 K, 5103.6 kPa | 1361.9
220 K, 6104.2 kPa | 1368.2
220 K, 7104.9 kPa | 1374.3
220 K, 8105.5 kPa | 1380.5
220 K, 9106.2 kPa | 1386.6
220 K, 10107 kPa | 1392.6
220 K, 12609 kPa | 1407.3
220 K, 15111 kPa | 1421.8
220 K, 17612 kPa | 1435.8
220 K, 20114 kPa | 1449.6
220 K, 25118 kPa | 1476.2
220 K, 30121 kPa | 1501.8
220 K, 35125 kPa | 1526.5
220 K, 40129 kPa | 1550.3
220 K, 45133 kPa | 1573.3
220 K, 50136 kPa | 1595.6
220 K, 60144 kPa | 1638.2
220 K, 70151 kPa | 1678.5
220 K, 80158 kPa | 1716.8
220 K, 90165 kPa | 1753.2
220 K, 100172 kPa | 1788.2
240 K, 252.21 kPa | 1219.3
240 K, 602.15 kPa | 1222
240 K, 1103 kPa | 1225.8
240 K, 2103.5 kPa | 1233.3
240 K, 2104.3 kPa | 1233.3
240 K, 3104.1 kPa | 1240.7
240 K, 3105.1 kPa | 1240.7
240 K, 4104.7 kPa | 1248
240 K, 4105.9 kPa | 1248
240 K, 5105.3 kPa | 1255.2
240 K, 5106.6 kPa | 1255.2
240 K, 6107.3 kPa | 1262.3
240 K, 7108.1 kPa | 1269.3
240 K, 8108.8 kPa | 1276.2
240 K, 9109.5 kPa | 1283.1
240 K, 10110 kPa | 1289.8
240 K, 12612 kPa | 1306.4
240 K, 15113 kPa | 1322.5
240 K, 17615 kPa | 1338.1
240 K, 20116 kPa | 1353.3
240 K, 25120 kPa | 1382.7
240 K, 30123 kPa | 1410.7
240 K, 35127 kPa | 1437.6
240 K, 40130 kPa | 1463.4
240 K, 45134 kPa | 1488.2
240 K, 50138 kPa | 1512.2
240 K, 60145 kPa | 1557.8
240 K, 70152 kPa | 1600.8
240 K, 80158 kPa | 1641.4
240 K, 90165 kPa | 1680
240 K, 100172 kPa | 1716.9
259.99 K, 12610 kPa | 1208.1
259.99 K, 80158 kPa | 1569.8
259.99 K, 90165 kPa | 1610.4
260 K, 251.45 kPa | 1109.1
260 K, 601.45 kPa | 1112.2
260 K, 1102.2 kPa | 1116.6
260 K, 2102.8 kPa | 1125.3
260 K, 2103.1 kPa | 1125.3
260 K, 3103.4 kPa | 1133.8
260 K, 3103.8 kPa | 1133.8
260 K, 4104.1 kPa | 1142.1
260 K, 4104.5 kPa | 1142.2
260 K, 5104.7 kPa | 1150.3
260 K, 5105.2 kPa | 1150.4
260 K, 6105.9 kPa | 1158.5
260 K, 7106.5 kPa | 1166.4
260 K, 8107.2 kPa | 1174.3
260 K, 9108 kPa | 1182
260 K, 10108 kPa | 1189.6
260 K, 15112 kPa | 1226
260 K, 17613 kPa | 1243.4
260 K, 20115 kPa | 1260.3
260 K, 25119 kPa | 1292.5
260 K, 30122 kPa | 1323.2
260 K, 35126 kPa | 1352.3
260 K, 40129 kPa | 1380.2
260 K, 45133 kPa | 1406.9
260 K, 50136 kPa | 1432.6
260 K, 60144 kPa | 1481.3
260 K, 70151 kPa | 1526.8
260 K, 100172 kPa | 1649
280 K, 250.96 kPa | 999.47
280 K, 601 kPa | 1003.1
280 K, 1101.7 kPa | 1008.2
280 K, 2102.4 kPa | 1018.3
280 K, 3103 kPa | 1028.1
280 K, 3103.1 kPa | 1028.2
280 K, 4103.6 kPa | 1037.8
280 K, 4103.9 kPa | 1037.8
280 K, 5104.1 kPa | 1047.2
280 K, 5104.6 kPa | 1047.2
280 K, 6105.4 kPa | 1056.5
280 K, 7106.1 kPa | 1065.6
280 K, 8106.8 kPa | 1074.5
280 K, 9107.5 kPa | 1083.2
280 K, 10108 kPa | 1091.8
280 K, 12610 kPa | 1112.6
280 K, 15112 kPa | 1132.7
280 K, 17613 kPa | 1151.9
280 K, 20115 kPa | 1170.5
280 K, 25118 kPa | 1206
280 K, 30122 kPa | 1239.3
280 K, 35125 kPa | 1270.9
280 K, 40128 kPa | 1300.9
280 K, 45132 kPa | 1329.5
280 K, 50135 kPa | 1357
280 K, 60142 kPa | 1408.7
280 K, 70149 kPa | 1456.8
280 K, 80159 kPa | 1502
280 K, 90166 kPa | 1544.6
280 K, 100173 kPa | 1584.9
299.99 K, 80158 kPa | 1438.2
299.99 K, 90165 kPa | 1482.7
299.99 K, 100172 kPa | 1524.7
300 K, 599.94 kPa | 893.83
300 K, 2102 kPa | 911.89
300 K, 2104.2 kPa | 911.91
300 K, 3102.8 kPa | 923.46
300 K, 3104.9 kPa | 923.48
300 K, 4103.6 kPa | 934.71
300 K, 4105.7 kPa | 934.73
300 K, 5104.4 kPa | 945.67
300 K, 5105.9 kPa | 945.68
300 K, 6106.5 kPa | 956.35
300 K, 7107.2 kPa | 966.78
300 K, 8107.8 kPa | 976.95
300 K, 9108.4 kPa | 986.91
300 K, 10109 kPa | 996.68
300 K, 12610 kPa | 1020.2
300 K, 15112 kPa | 1042.6
300 K, 17614 kPa | 1064
300 K, 20115 kPa | 1084.5
300 K, 25118 kPa | 1123.3
300 K, 30122 kPa | 1159.6
300 K, 35125 kPa | 1193.6
300 K, 40129 kPa | 1225.8
300 K, 45132 kPa | 1256.4
300 K, 50136 kPa | 1285.6
300 K, 60143 kPa | 1340.3
300 K, 70150 kPa | 1390.9
300.01 K, 1100.4 kPa | 899.93
320 K, 601.27 kPa | 783.22
